Laboratory results reported in ChEMBL document CHEMBL5050844 (2019).
Blank lines part the entries; values can stand above or below the molecule they belong to.

Legend:
[1] = target: T1, E3 ubiquitin-protein ligase CBL-B (Homo sapiens, UniProt Q13191); assay: Inhibition of N-terminal Avi-tagged human CBL-B (36 to 427 residues) incubated with 30 nM Src kinase for 1.5 hrs followed by incubation with fluorescently labeled UbcH5B-Ub for 1 hr and measured by TR-FRET assay
[2] = target: T1, E3 ubiquitin-protein ligase CBL-B; assay: Inhibition of N-terminal Avi-tagged human CBL-B (36 to 427 residues) incubated with 60 nM Src kinase for 1.5 hrs followed by incubation with fluorescently labeled UbcH5B-Ub for 1 hr and measured by TR-FRET assay; type: single protein
[3] = target: T1, E3 ubiquitin-protein ligase CBL-B; assay: Binding affinity towards N-terminal biotinylated Avi-tagged human CBL-B (36 to 427 residues) measured by surface plasmon resonance assay
[4] = Induction of anti-CD3/CD28 antibodies-stimulated human T cell activation at 1 uM assessed fold increase in IL-2 secretion measured by ELISA assay; type: functional, T cell line
[5] = Induction of anti-CD3/CD28 antibodies-stimulated human T cell activation at 0.3 uM assessed fold increase in IL-2 secretion measured by ELISA assay; type: functional, T cell line
[6] = Induction of anti-CD3 antibodies-stimulated human T cell activation at 1 uM assessed fold increase in IL-2 secretion measured by ELISA assay; type: functional, T cell line; also: reference of the scale not given here
[7] = Induction of anti-CD3/CD28 antibodies-stimulated human T cell activation at 1 uM assessed fold increase in CD25 expression measured by ELISA assay; type: functional, T cell line
[8] = Induction of anti-CD3/CD28 antibodies-stimulated human T cell activation at 0.3 uM assessed fold increase in CD25 expression measured by ELISA assay; type: functional, T cell line
[9] = Induction of anti-CD3 antibodies-stimulated human T cell activation at 1 uM assessed fold increase in CD25 expression measured by ELISA assay; type: functional, T cell line; also: reference of the scale not given here
[10] = Induction of anti-CD3 antibodies-stimulated human CD4+ T cell activation in immunocompetent mouse assessed fold increase in CD25 expression at 135 mg/kg, po administered twice a day; type: functional; also: reference of the scale not given here
[11] = Induction of anti-CD3 antibodies-stimulated human CD8+ T cell activation in immunocompetent mouse assessed fold increase in CD25 expression at 90 mg/kg, po administered twice a day; type: functional; also: reference of the scale not given here
[12] = Induction of anti-CD3/CD28 antibodies-stimulated human T cell activation at 4 uM assessed fold increase in IL-2 secretion measured by ELISA assay; type: functional, T cell line
[13] = Induction of anti-CD3 antibodies-stimulated human T cell activation at 8 uM assessed fold increase in IL-2 secretion measured by ELISA assay; type: functional, T cell line; also: reference of the scale not given here
[14] = Induction of anti-CD3/CD28 antibodies-stimulated human T cell activation at 4 uM assessed fold increase in CD25 expression measured by ELISA assay; type: functional, T cell line
[15] = Induction of anti-CD3 antibodies-stimulated human T cell activation at 8 uM assessed fold increase in CD25 expression measured by ELISA assay; type: functional, T cell line; also: reference of the scale not given here
[16] = Induction of allogenic human T cell activation at 10 uM assessed fold increase in cell proliferation; type: functional, T cell line
[17] = Induction of allogenic human T cell activation at 3 uM assessed fold increase in cell proliferation; type: functional, T cell line
[18] = Induction of anti-CD3 antibodies-stimulated human exhausted T cell activation assessed fold increase in IFN-gamma secretion measured by ELISA assay; type: functional, T cell line; also: reference of the scale not given here
[19] = Induction of anti-CD3 antibodies-stimulated human exhausted T cell activation assessed fold increase in IL-2 secretion measured by ELISA assay; type: functional, T cell line; also: reference of the scale not given here
[20] = Induction of anti-CD3 antibodies-stimulated human exhausted T cell activation assessed fold increase in GM-CSF secretion measured by ELISA assay; type: functional, T cell line; also: reference of the scale not given here
[21] = Induction of anti-CD3 antibodies-stimulated human exhausted CD4+ T cell activation assessed fold increase in CTLA4 expression measured by flow cytometry analysis; type: functional, T cell line; also: reference of the scale not given here
[22] = Induction of anti-CD3 antibodies-stimulated human exhausted CD8+ T cell activation assessed fold increase in CTLA4 expression measured by flow cytometry analysis; type: functional, T cell line; also: reference of the scale not given here
[23] = Induction of anti-CD3/CD28 antibodies-stimulated human anergic T cell activation at 10 uM assessed fold increase in IFN-gamma secretion measured by ELISA assay; type: functional, T cell line
[24] = Induction of anti-CD3/CD28 antibodies-stimulated human anergic T cell activation at 1.11 uM assessed fold increase in IFN-gamma secretion measured by ELISA assay; type: functional, T cell line
[25] = Induction of anti-CD3/CD28 antibodies-stimulated human anergic T cell activation at 0.37 uM assessed fold increase in IFN-gamma secretion measured by ELISA assay; type: functional, T cell line
[26] = tested on: B cell; assay: Induction of anti-IgM-stimulated human CD20+ B cell activation at 10 to 1000 uM assessed as increase in CD69 expression measured as mean fluorescence intensity AUC by flow cytometry analysis; type: functional, cell-based; settings: dose 10-1000 µM
[27] = Induction of activation of human CD56+ CD3- NK cells co-cultured with human K562 cells in 1:1 ratio and assessed as increase in IFN-gamma secretion at 10 uM measured by ELISA assay; type: functional, Natural killer cell
[28] = Induction of activation of human CD56+ CD3- NK cells co-cultured with human K562 cells in 1:1 ratio and assessed as increase in TNF-alpha secretion at 10 uM measured by ELISA assay; type: functional, Natural killer cell
[29] = Induction of activation of human CD56+ CD3- NK cells co-cultured with human K562 cells in 1:1 ratio and assessed as increase in IFN-gamma secretion at 2.5 uM measured by ELISA assay; type: functional, Natural killer cell
[30] = Induction of activation of human CD56+ CD3- NK cells co-cultured with human K562 cells in 1:1 ratio and assessed as increase in IFN-gamma secretion at 0.625 uM measured by ELISA assay; type: functional, Natural killer cell
[31] = Induction of activation of human CD56+ CD3- NK cells co-cultured with human K562 cells in 1:1 ratio and assessed as increase in TNF-alpha secretion at 2.5 uM measured by ELISA assay; type: functional, Natural killer cell
[32] = Induction of activation of human CD56+ CD3- NK cells co-cultured with human K562 cells in 1:1 ratio and assessed as increase in TNF-alpha secretion at 0.625 uM measured by ELISA assay; type: functional, Natural killer cell

T1 sequence (Q13191 whole entry, the tested form may be a part): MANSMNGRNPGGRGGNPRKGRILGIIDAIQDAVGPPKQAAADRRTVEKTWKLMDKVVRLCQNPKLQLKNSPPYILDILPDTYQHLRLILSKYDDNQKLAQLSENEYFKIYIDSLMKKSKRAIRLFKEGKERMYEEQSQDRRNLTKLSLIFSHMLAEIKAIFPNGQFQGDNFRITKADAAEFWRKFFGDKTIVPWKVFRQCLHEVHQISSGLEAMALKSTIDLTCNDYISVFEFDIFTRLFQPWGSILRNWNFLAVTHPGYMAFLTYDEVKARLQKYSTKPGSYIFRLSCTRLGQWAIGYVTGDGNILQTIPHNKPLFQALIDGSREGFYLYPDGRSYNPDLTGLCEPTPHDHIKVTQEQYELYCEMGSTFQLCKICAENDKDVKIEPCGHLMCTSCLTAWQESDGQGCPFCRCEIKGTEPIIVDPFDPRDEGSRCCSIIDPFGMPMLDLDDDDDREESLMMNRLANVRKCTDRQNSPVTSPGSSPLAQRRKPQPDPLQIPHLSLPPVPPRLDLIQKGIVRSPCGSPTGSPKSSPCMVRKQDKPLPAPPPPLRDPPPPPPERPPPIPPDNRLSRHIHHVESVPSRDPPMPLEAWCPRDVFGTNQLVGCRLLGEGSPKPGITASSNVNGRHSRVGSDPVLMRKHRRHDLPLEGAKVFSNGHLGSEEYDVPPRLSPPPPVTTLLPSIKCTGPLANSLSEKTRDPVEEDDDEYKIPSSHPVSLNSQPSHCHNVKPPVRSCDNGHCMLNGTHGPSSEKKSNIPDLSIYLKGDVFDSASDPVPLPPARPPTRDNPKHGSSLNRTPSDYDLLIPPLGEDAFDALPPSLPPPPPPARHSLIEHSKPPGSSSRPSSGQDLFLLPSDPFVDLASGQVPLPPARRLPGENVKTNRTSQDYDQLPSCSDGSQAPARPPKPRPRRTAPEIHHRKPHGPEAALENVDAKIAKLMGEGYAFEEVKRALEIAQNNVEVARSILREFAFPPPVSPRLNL

IC50 [2]: < 100 nM
Kd [3]: < 100 nM
Structure (SMILES): Cn1cnnc1CC1(c2cccc(NC(=O)c3cc(CN4CC[C@H](F)C4)cc(C4CC4)n3)c2)COC1
fold change (FC) [4]: >=7.5
fold change (FC) [5]: >=7.5
fold change (FC) [6]: >=0.201
fold change (FC) [7]: 1.51
fold change (FC) [8]: 1.51
fold change (FC) [9]: >=1.001
fold change (FC) [10]: 1.51
fold change (FC) [11]: 1

IC50 [2]: < 100 nM
Structure (SMILES): Cn1cnnc1CC1(c2cccc(N3Cc4c(cc(CN5CC6(CC6)C5)cc4C(F)(F)F)C3=O)c2)COC1
fold change (FC) [4]: >=7.5
fold change (FC) [5]: >=7.5
fold change (FC) [6]: >=0.201
fold change (FC) [7]: 1.31
fold change (FC) [8]: 1.31
fold change (FC) [9]: >=1.001
fold change (FC) [10]: 1.51
fold change (FC) [11]: 1

IC50 [2]: < 100 nM
Structure (SMILES): Cn1cnnc1CC1(c2cccc(N3Cc4c(cc(CN5C[C@H]6C[C@H]6C5)cc4C(F)(F)F)C3=O)c2)COC1
fold change (FC) [12]: >=7.5
fold change (FC) [4]: >=7.5
fold change (FC) [5]: >=7.5
fold change (FC) [13]: >=0.201
fold change (FC) [6]: >=0.201
fold change (FC) [14]: 1.51
fold change (FC) [7]: 1.31
fold change (FC) [8]: 1.31
fold change (FC) [15]: >=1.001
fold change (FC) [9]: >=1.001
fold change (FC) [10]: 1
fold change (FC) [11]: 1

Further lines, the molecule ahead of its results:

Structure (SMILES): CC(Sc1nncn1C)c1cccc(NC(=O)c2cc3ccccc3c(=O)[nH]2)c1 (centres undefined)
IC50 [1]: > 10000 nM

Structure (SMILES): CC(Sc1nncn1C)c1cc(CO)cc(NC(=O)c2ccc3ccccc3n2)c1 (centres undefined)
IC50 [1]: > 10000 nM

Structure (SMILES): Cn1cnnc1[C@H](F)C1(c2cccc(N3Cc4c(cc(CN5CCC(F)CC5)cc4C(F)(F)F)C3=O)c2)COC1
IC50 [2]: < 100 nM
Kd [3]: < 100 nM
fold change (FC) [4]: >=7.5
fold change (FC) [5]: >=7.5
fold change (FC) [6]: >=0.201
fold change (FC) [7]: >=1.76
fold change (FC) [8]: >=1.76
fold change (FC) [9]: >=1.001
fold change (FC) [10]: 1.51
fold change (FC) [11]: 1

Structure (SMILES): C[C@@H](c1cc2c(c(C(F)(F)F)c1)CN(c1cccc(C3(Cc4nncn4C)COC3)c1)C2=O)N1CC2CC2C1 (some centres undefined)
IC50 [2]: < 100 nM
fold change (FC) [4]: >=7.5
fold change (FC) [5]: >=7.5
fold change (FC) [6]: >=0.201
fold change (FC) [7]: 1.31
fold change (FC) [8]: 1.31
fold change (FC) [9]: >=1.001
fold change (FC) [10]: 1
fold change (FC) [11]: 1

Structure (SMILES): CN1CC2CCC(C1)N2c1cc2c(c(C(F)(F)F)c1)CN(c1cccc(C3(Cc4nncn4C)COC3)c1)C2=O
IC50 [2]: < 100 nM
fold change (FC) [4]: >=7.5
fold change (FC) [5]: >=7.5
fold change (FC) [6]: >=0.201
fold change (FC) [7]: 1.31
fold change (FC) [8]: 1.31
fold change (FC) [9]: >=1.001
fold change (FC) [10]: 1
fold change (FC) [11]: 1

Structure (SMILES): C[C@H](Cc1nncn1C)c1ccnc(NC(=O)c2cccc(C(F)(F)F)n2)c1
fold change (FC) [12]: >=7.5
fold change (FC) [4]: 2.51
fold change (FC) [5]: 2.51
fold change (FC) [13]: 0.051
fold change (FC) [6]: <=0.05
fold change (FC) [14]: 1.01
fold change (FC) [7]: 1.01
fold change (FC) [8]: 1.01
fold change (FC) [15]: 0.801
fold change (FC) [9]: <=0.6
fold change (FC) [16]: <=2
fold change (FC) [17]: <=2
fold change (FC) [18]: <=1.4
fold change (FC) [19]: <=2.5
fold change (FC) [20]: <=1.4
fold change (FC) [21]: <=1.4
fold change (FC) [22]: <=1.4
fold change (FC) [23]: <=2.5
fold change (FC) [24]: <=2.5
fold change (FC) [25]: <=2.5
AUC [26]: 0.5
fold change (FC) [27]: 2.01
fold change (FC) [28]: 1.01
fold change (FC) [29]: <=1
fold change (FC) [30]: 1.01
fold change (FC) [31]: 1.01
fold change (FC) [32]: 1.01
